Data reported in patent US20260070922A1, “PYRAZOLE AND IMIDAZOLE DERIVATIVES AS DUAL OREXIN AND KAPPA-OPIOID RECEPTORS MODULATORS COMPOSITION, METHODS FOR TREATING NEUROLOGICAL AND PSYCHIATRIC DISORDERS” (HAGER BIOSCIENCES, LLC, priority 2022, published 2026).

Tests used:
[1] = molecular target: T1, human orexin-2 receptor (OX2R) (Homo sapiens, UniProt O43614); test: In vitro orexin antagonism assay: intracellular calcium measurement (FLIPR), orexin-A 3 nM as agonist; assay type: cell-based; conditions: for inhibition at 1 µM: read-out: OX2R, % Inh. @ 1 uM; for IC50: first value of IC50/Kb cell; for Kb: second value of IC50/Kb cell
T1 construct: expressed in transfected cells; host or cells: CHO cells (G418 selection)
T1 sequence (O43614 1-444): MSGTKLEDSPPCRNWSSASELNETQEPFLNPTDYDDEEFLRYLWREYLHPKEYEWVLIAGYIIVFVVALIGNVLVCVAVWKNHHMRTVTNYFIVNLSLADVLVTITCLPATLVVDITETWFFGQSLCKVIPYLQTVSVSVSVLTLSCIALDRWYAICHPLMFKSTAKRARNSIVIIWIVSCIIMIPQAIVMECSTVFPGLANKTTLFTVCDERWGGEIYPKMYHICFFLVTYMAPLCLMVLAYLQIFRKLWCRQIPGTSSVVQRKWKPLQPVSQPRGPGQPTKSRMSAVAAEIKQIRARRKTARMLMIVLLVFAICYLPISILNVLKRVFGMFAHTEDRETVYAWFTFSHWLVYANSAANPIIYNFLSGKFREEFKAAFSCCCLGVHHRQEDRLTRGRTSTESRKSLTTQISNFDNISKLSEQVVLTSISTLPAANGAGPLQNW
Procedure: Antagonistic activities on both orexin receptors have been measured for each example compound using the following procedure:
(§1) In Vitro Orexin Antagonism Measurement Assay: Intracellular Calcium Measurements:
(§2) Chinese hamster ovary (CHO) cells expressing the human […] and the human orexin-2 receptor, respectively, are grown in culture medium (Ham F-12 with L-Glutamine) containing 300 μg/mL G418, 100 U/mL penicillin, 100 μg/mL streptomycin and 10% heat inactivated fetal calf serum (FCS). The cells are seeded at 20,000 cells/well into 384-well black clear bottom sterile plates (Greiner). The seeded plates are incubated overnight at 37° C. in 5% 002. Human orexin-A as an agonist is prepared as 1 mM stock solution in MeOH: water (1:1), diluted in HBSS containing 0.1% bovine serum albumin (BSA), NaHCO3: 0.375 g/L and 20 mM HEPES for use in the assay at a final concentration of 3 nM.
(§3) Antagonists are prepared as 10 mM stock solution in DMSO, then diluted in 384-well plates using DMSO followed by a transfer of the dilutions into in HBSS containing 0.1% bovine serum albumin (BSA), NaHCO3: 0.375 g/L and 20 mM HEPES. On the day of the assay, 50 μL of staining buffer (HBSS containing 1% FCS, 20 mM HEPES, NaHCO3: 0.375 g/L, 5 mM probenecid (Sigma) and 3 μM of the fluorescent calcium indicator fluo-4 AM (1 mM stock solution in DMSO, containing 10% pluronic) is added to each well. The 384-well cell-plates are incubated for 50 min at 37° C. in 5% CO2 followed by equilibration at RT for 30 min before measurement.
(§4) Within the Fluorescent Imaging Plate Reader (FLIPR Tetra, Molecular Devices), antagonists are added to the plate in a volume of 10 μL/well, incubated for 120 min and finally 10 μL/well of agonist is added. Fluorescence is measured for each well at 1 second intervals, and the height of each fluorescence peak is compared to the height of the fluorescence peak induced by 3 nM orexin-A with vehicle in place of antagonist. The IC50 value (the concentration of compound needed to inhibit 50% of the agonistic response) is determined and may be normalized using the obtained IC50 value of an on-plate reference compound. Optimized conditions were achieved by adjustment of pipetting speed and cell splitting regime. The calculated IC50values may fluctuate depending on the daily cellular assay performance. Fluctuations of this kind are known to those skilled in the art. In the case where IC50values have been determined several times for the same compound, the geometric mean has been given.

[2] = molecular target: T2, Orexin type 1 (OX1R) receptor (Homo sapiens, UniProt O43613); test: as above; assay type: cell-based; conditions: for inhibition at 1 µM: read-out: OX1R, % Inh. @ 1 uM; for IC50: first value of IC50/Kb cell; for Kb: second value of IC50/Kb cell
T2 construct: expressed in transfected cells; host or cells: CHO cells (G418 selection)
T2 sequence (O43613 1-425): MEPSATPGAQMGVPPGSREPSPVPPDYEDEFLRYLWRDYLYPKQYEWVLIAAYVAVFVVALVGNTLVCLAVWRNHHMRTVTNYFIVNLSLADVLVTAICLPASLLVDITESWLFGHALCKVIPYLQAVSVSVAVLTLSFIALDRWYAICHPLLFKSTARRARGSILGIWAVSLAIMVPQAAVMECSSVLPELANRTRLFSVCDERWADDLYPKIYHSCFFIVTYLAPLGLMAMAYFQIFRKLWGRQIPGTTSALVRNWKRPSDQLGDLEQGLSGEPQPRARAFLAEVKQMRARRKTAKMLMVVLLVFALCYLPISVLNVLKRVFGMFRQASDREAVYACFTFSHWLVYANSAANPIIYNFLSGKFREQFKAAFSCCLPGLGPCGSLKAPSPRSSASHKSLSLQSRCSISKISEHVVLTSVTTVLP
Procedure: as §1, §2, §3
as §4, with “art.” for “art. In the case where IC50values have been determined several times for the same compound, the geometric mean has been given.”

Structure (SMILES) | inhibition at 1 µM [1] [%] | inhibition at 1 µM [2] [%] | IC50 [1] [nM] | Kb [1] [nM] | IC50 [2] [nM] | Kb [2] [nM]
O=C(c1c(-c2ccccc2)nn2c1COCC2)N1CCC[C@H]1Cn1ccc(-c2ccccn2)n1 [Example 76] | 25 | 46 | – | – | – | –
O=C(c1c(-c2ccccc2)nn2c1COCC2)N1CCC[C@H]1Cn1cc(-c2ccccn2)cn1 [Example 77] | 23 | 22 | – | – | – | –
O=C(c1c(-c2ccccc2)nc2cc(C(F)(F)F)ccn12)N1CCC[C@H]1Cn1cc(-c2ccccn2)cn1 [Example 79] | 62 | 43 | 77 | 13 | – | –
O=C(c1c(-c2ccccc2)nc2cc(C(F)(F)F)ccn12)N1CCC[C@H]1Cn1cc(-c2ccc(F)cn2)cn1 [Example 81] | 63 | 58 | 70 | 12 | 400 | 84
O=C(c1c(-c2ccccc2F)nn2c1COCC2)N1CCC[C@H]1Cn1cc(-c2ccc(F)cn2)cn1 [Example 83] | 39 | 17 | – | – | – | –
O=C(c1c(-c2ccccc2)nc2ccc(F)cn12)N1CCC[C@H]1Cn1cc(-c2ccc(F)cn2)cn1 [Example 84] | 58 | 32 | 400 | 70 | – | –
O=C(c1c(-c2ccccc2)nn2c1COCC2)N1CCC[C@H]1Cn1cc(-c2ccc(F)cn2)cn1 [Example 85] | 35 | 19 | – | – | – | –
O=C(c1c(-c2ccccc2)nn2c1COCC2)N1CCC[C@H]1Cn1cc(-c2ccccc2)cn1 [Example 86] | 42 | 56 | – | – | 1300 | 280
O=C(c1c(-c2ccccc2F)nn2c1COCC2)N1CCC[C@H]1Cn1ccc(-c2ccc(F)cn2)n1 [Example 91] | 38 | 58 | – | – | 540 | 110

Further lines, results first:

inhibition at 1 µM [1] [%] | inhibition at 1 µM [2] [%] | IC50 [1] [nM] | Kb [1] [nM] | IC50 [2] [nM] | Kb [2] [nM] | Structure (SMILES)
36 | 41 | – | – | – | – | O=C(c1c(-c2ccccc2)nn2c1COCC2)N1CCC[C@H]1Cn1ccc(-c2ccc(F)cn2)n1 [Example 93]
22 | 44 | – | – | – | – | O=C(c1c(-c2ccccc2F)nn2c1COCC2)N1[C@H](Cn2ccc(-c3ccc(F)cc3)n2)C[C@@H]2C[C@@H]21 [Example 96]
35 | 48 | – | – | – | – | O=C(c1c(-c2ccccc2)nc2cc(C(F)(F)F)ccn12)N1[C@H](Cn2ccc(-c3ccc(F)cc3)n2)C[C@@H]2C[C@@H]21 [Example 98]
61 | 59 | 270 | 46 | 440 | 92 | O=C(c1c(-c2ccccc2F)nn2ccccc12)N1CC[C@H]1Cn1ccc(-c2ccc(F)cc2)n1 [Example 99]
19 | -2 | – | – | – | – | O=C(c1c(-c2ccccc2F)nn2c1COCC2)N1CC[C@H]1Cn1ccc(-c2ccc(F)cc2)n1 [Example 100]
47 | 25 | – | – | – | – | O=C(c1c(-c2ccccc2)nc2ccc(F)cn12)N1CC[C@H]1Cn1ccc(-c2ccc(F)cc2)n1 [Example 101]
60 | 31 | 660 | 110 | – | – | O=C(c1c(-c2ccccc2)nc2cc(C(F)(F)F)ccn12)N1CC[C@H]1Cn1ccc(-c2ccc(F)cc2)n1 [Example 102]
43 | 24 | – | – | – | – | O=C(c1c(-c2ccccc2F)nn2ccccc12)N1CC[C@H]1Cn1ccc(-c2ccc(F)cn2)n1 [Example 103]
14 | 8 | – | – | – | – | O=C(c1c(-c2ccccc2F)nn2c1COCC2)N1CC[C@H]1Cn1ccc(-c2ccc(F)cn2)n1 [Example 104]
29 | 5 | – | – | – | – | O=C(c1c(-c2ccccc2)nc2ccc(F)cn12)N1CC[C@H]1Cn1ccc(-c2ccc(F)cn2)n1 [Example 105]
39 | 19 | – | – | – | – | O=C(c1c(-c2ccccc2)nc2cc(C(F)(F)F)ccn12)N1CC[C@H]1Cn1ccc(-c2ccc(F)cn2)n1 [Example 106]
